Results taken from patent publication US20230220037A1, “NOVEL USE” (GlaxoSmithKline Intellectual Property (No.3) Limited, priority 0001, published 2023).
Entries after “also recorded” stand apart in the source; their conditions may differ.

Key:
TRPM3 [1] = type: cell-based, C57BL/6NJ mice and Sprague Dawley rats; conditions: cultured TG neurons; agonist 30 min at 37° C.; ELISA
TRPM3 [2] = biological target: T1, TRPM3 (Mus musculus, UniProt J9SQF3); conditions: Held et al., PNAS 2015; cited from earlier work
TRPM3 [3] = type: cell-based, mouse; conditions: for TRPM3 dependence of agonist-induced PACAP release: mouse DRG and TG cells, wild type vs Trpm3 knockout
TRPM3 [4] = experiment: CGRP release assay, wild type and Trpm3 knock out DRG and TG neurons; type: cell-based, mouse; conditions: for CGRP release from Trpm3 deficient sensory neurons: Trpm3 knock out DRG and TG neurons; for CGRP release from wild type sensory neurons: wild type DRG and TG neurons
TRPM3 [5] = type: cell-based, C57BL/6NJ mice and Sprague Dawley rats; conditions: cultured DRG neurons; agonist 30 min at 37° C.; PS 100 μM; ELISA
rats [6] = experiment: Five-day rat dural infusion migraine model, periorbital von Frey testing; type: in vivo; conditions: for Sensitivity to periorbital von Frey stimulation compared to vehicle treated animals: Day 5 (after 4 infusions)
Experimental: The five-day rat Dural infusion migraine model is based on repeated inflammatory dural stimulation to mimic the repeated activation of dural afferents believed to occur in patients with recurrent migraine headache. In this model, rats are tested in the periorbital region for mechanical allodynia (a pain response to stimuli which are not normally painful) using von Frey fibres, which are small calibrated fibres which deliver a calibrated amount of force.
The surgery, infusion, and testing followed the modification of the method of Oshinsky & Gomoncharconsiri, 2007, supra. Briefly, rats were habituated and trained for 1-2 weeks and then fitted with a stainless-steel cannula (22GA, Plastics One) under isoflurane anaesthesia. […] Special attention was given not to disturb the dura. A custom flange guide cannula (22GA, Plastics One) was inserted into the hole (cut 0.5 mm below pedestal). The cannula was fixed to the bone with small screws and dental cement. A dummy that extended just past the end of the cannula was inserted to prevent scar tissue from forming, and thus clogging the cannula. Animals were allowed 1-2 weeks of recovery before testing and infusions began.
Periorbital thresholds were monitored during the recovery period to ensure the thresholds returned to pre-surgery baselines. […] Extra animals were included to account for any post-surgery animal that needed to be excluded.
After recovering from surgery, animals were infused supra-durally with treatments according to Table 1 for 5 consecutive days. Under isoflurane, the animal's nose was place in the nose cone of the anaesthesia machine. Using a haemostat, the base of the flange cannula was clasped, and the dummy cannula was removed. A custom cannula injector was inserted into the flange cannula. With a Hamilton syringe and infusion pump at a rate of 1.759 μl/min 15 μl of formulations was delivered supra-durally.
Animals were randomly assigned to a treatment group (A-C) using a software generated randomization scheme. From the first day of sensitization, each animal was tested routinely (every 2-3 days) for changes in periorbital sensitivity by a blinded investigator.
Pre-infusion sensory testing occurred on Day 1 of the testing schedule to provide a point of comparison for subsequent testing. Sensory testing occurred according to the testing schedule established in Table 1, and prior to infusion when applicable. Sensory testing utilized von Frey filaments with reproducible calibrated buckling forces varying from 0.4-10 g utilizing the Chaplan up and down method. Allodynia was tested by perpendicularly touching the periorbital region causing slight buckling of the filament for approximately 5 seconds. Based on the response pattern and the force of the final filament, the periorbital threshold (g) was calculated (Chaplan et al., 1994, Quantitative assessment of tactile allodynia in the rat paw. Journal of neuroscience methods, 53(1), 55-63). The supra-dural infusions were above the dura in the right brain hemisphere; therefore, the right periorbital threshold data only was recorded. A positive response was characterized by several behavioural criteria: stroking the face with a forepaw, head withdrawal from the stimulus, and head shaking.

TRPM3 (SEQ ID NO: 2) = biological target: T2, TRPM3 (SEQ ID NO: 2) (Homo sapiens, UniProt Q9HCF6); experiment: Calcium mobilisation assay, HEK MSR II cells expressing canonical TRPM3; type: cell-based; conditions: for Relative agonist potency of the isomers of CIM0216 in calcium mobilisation assay: R-isomer vs S-isomer
T2 construct: expressed in transfected cells; host or cells: HEK MSR II cells transduced with BacMam virus (codon optimised cDNA)
Experimental: (§1) Example 3—Calcium mobilisation assay and cell lines Calcium mobilisation assays were performed in HEK MSR II cells loaded with the calcium indicator dye Fluo4. The cells were induced to express TRPM3 (SEQ ID NO: 2) or mutants thereof by transducing them with Bacmam virus containing the codon optimised cDNA sequence for the required TRPM3 variant at a multiplicity of infection of approximately 40 for 48 hours prior to the experiment. Cells were incubated in the presence of FLUO4-AM and TRPM3 inhibitors for approx 1.5 hrs prior to transfer to a FLIPR where the cells were treated with TRPM3 agonists to induce calcium mobilisation. Fluo4 fluorescence was monitored for 10 min. As a positive control the cells were then treated with the calcium ionophore ionomycin and the fluorescence monitored for a further 3 min.

rats [7] = conditions: inflammatory soup infusion; historical data; cited from earlier work
PACAP-38 = conditions: treatment with sumatriptan; cited from earlier work
[8] = biological target: T3, variant of SEQID NO: 2 having the R1670Q mutation (Homo sapiens, UniProt Q9HCF6, R1695Q); experiment: Calcium mobilisation assay, HEK MSR II cells expressing TRPM3 R1670Q variant; type: cell-based
T3 construct: expressed in transfected cells; host or cells: HEK MSR II cells transduced with BacMam virus (codon optimised cDNA)
Experimental: as §1

TRPM3 [9] = biological target: T1, TRPM3; design: trigeminal neurons from mice; host or cells: trigeminal neurons from mice; conditions: Vriens et al., Neuron 2011; cited from earlier work
[10] = supra-dural infusion 5 days, Pregnenolone sulphate 5 mM, CIM0216 215 μM
[11] = HEK MSR II cells, Bacmam transduction

T3 sequence (Q9HCF6 1-1707 isoform Q9HCF6-2 R1670Q): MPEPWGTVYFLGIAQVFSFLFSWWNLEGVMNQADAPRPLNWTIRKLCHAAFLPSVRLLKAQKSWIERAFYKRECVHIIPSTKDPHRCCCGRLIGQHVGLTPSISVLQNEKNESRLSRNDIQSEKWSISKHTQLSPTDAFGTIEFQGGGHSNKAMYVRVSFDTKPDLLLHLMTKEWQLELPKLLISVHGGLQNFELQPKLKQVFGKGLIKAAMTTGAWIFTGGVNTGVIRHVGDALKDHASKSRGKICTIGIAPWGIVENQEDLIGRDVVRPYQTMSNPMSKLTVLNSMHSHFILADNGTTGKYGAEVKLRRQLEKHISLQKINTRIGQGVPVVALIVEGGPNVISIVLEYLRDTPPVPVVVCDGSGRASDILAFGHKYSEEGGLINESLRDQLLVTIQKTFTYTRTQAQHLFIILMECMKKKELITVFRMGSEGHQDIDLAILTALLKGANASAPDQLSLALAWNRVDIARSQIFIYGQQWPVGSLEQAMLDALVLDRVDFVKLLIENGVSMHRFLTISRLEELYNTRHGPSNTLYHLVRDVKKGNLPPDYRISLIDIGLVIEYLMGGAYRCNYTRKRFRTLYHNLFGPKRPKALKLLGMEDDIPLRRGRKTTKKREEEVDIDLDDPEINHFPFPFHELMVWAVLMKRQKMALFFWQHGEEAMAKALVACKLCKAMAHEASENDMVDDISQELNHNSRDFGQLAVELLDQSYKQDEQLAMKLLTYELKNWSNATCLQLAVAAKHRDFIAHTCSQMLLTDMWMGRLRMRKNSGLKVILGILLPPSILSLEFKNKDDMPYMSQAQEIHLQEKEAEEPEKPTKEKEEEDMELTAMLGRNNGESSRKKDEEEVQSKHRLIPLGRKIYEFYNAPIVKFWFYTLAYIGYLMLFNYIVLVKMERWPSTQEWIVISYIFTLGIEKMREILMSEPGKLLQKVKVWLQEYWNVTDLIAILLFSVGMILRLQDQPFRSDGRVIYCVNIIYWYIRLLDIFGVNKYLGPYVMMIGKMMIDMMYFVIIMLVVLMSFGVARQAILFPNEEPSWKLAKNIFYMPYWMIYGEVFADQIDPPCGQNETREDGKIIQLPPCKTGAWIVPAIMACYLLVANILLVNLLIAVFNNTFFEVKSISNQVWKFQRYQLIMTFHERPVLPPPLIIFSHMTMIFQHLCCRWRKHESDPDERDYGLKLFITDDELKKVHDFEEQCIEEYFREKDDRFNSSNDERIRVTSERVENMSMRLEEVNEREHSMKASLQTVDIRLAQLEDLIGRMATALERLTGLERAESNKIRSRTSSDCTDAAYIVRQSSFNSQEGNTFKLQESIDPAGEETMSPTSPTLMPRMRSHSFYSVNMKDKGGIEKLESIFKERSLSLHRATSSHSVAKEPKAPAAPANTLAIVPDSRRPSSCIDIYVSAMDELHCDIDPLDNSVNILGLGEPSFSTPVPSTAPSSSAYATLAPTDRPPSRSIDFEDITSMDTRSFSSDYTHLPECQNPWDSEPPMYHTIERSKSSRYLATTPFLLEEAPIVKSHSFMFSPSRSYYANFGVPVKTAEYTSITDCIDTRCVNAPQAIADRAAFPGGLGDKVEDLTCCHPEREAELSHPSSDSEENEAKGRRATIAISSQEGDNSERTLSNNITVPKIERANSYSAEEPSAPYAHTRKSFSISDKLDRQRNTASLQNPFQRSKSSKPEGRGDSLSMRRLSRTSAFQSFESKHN
T2 sequence (Q9HCF6 1-1707 isoform Q9HCF6-2): as the sequence (Q9HCF6 1-1707 isoform Q9HCF6-2 R1670Q) above, with Q1670R counted along it
T1 sequence (J9SQF3 whole entry): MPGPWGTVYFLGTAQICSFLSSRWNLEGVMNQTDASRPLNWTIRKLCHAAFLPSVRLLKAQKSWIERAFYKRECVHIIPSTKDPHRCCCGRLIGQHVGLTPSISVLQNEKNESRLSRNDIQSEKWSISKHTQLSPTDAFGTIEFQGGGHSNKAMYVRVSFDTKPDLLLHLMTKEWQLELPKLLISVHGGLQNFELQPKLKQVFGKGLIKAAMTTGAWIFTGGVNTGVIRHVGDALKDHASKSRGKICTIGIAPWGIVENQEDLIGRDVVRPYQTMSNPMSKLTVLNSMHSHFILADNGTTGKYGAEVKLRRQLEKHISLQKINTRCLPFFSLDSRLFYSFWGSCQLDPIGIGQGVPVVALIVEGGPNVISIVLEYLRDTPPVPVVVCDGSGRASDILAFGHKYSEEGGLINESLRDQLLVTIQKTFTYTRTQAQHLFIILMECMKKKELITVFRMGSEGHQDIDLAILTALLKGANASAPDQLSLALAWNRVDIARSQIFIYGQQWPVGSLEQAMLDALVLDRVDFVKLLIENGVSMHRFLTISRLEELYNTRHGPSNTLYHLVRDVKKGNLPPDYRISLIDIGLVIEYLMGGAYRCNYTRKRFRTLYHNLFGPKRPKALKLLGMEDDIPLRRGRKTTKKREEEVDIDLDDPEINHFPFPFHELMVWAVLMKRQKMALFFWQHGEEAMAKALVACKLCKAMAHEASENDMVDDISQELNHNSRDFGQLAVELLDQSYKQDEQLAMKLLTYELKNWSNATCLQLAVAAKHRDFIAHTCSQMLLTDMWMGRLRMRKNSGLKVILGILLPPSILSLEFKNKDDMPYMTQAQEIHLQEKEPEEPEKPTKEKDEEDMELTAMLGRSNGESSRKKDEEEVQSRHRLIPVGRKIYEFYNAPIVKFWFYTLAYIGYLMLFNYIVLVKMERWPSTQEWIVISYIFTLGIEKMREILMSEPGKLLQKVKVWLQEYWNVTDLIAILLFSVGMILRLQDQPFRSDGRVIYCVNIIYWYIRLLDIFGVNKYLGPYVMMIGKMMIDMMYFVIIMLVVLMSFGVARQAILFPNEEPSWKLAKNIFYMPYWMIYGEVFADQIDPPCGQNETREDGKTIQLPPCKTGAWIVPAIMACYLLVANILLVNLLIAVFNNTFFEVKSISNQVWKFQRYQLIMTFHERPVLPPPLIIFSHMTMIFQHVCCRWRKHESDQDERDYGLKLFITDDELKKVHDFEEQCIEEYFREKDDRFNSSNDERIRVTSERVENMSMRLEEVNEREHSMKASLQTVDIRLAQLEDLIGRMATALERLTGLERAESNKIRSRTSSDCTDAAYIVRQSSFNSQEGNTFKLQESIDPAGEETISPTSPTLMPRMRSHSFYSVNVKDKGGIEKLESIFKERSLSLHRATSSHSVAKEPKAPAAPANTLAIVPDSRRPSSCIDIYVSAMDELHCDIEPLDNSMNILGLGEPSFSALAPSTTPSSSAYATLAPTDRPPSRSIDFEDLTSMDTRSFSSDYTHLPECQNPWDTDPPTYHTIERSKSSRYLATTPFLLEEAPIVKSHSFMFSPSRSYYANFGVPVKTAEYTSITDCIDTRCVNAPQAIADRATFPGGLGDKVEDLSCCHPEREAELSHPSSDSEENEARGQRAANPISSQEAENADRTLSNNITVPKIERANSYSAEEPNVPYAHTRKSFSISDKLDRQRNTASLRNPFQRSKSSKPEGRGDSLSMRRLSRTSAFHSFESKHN

Compound	CGRP release from TG neurons induced by TRPM3 agonist (TRPM3 [1])	TRPM3 dependence of agonist-induced PACAP release (TRPM3 [3])	CGRP release from Trpm3 deficient sensory neurons (TRPM3 [4])	CGRP release from wild type sensory neurons (TRPM3 [4])	CGRP release from DRG neurons induced by TRPM3 agonist (TRPM3 [5])	Sensitivity to periorbital von Frey stimulation compared to vehicle treated animals (rats [6])	Mechanical allodynia in the periorbital region (von Frey thresholds) (rats [6]; [10])	further results
Cc1cc(NC(=O)C(c2ccccc2)N2CCCc3ccccc32)no1 (racemic) [CIM0216, 2-(3,4-dihydroquinolin-1(2H)-yl)-N-(5-methylisoxazol-3-yl)-2-phenylacetamide]	induced a concentration dependent release of CGRP; also recorded: stimulate release of CGRP	dependent on TRPM3	absent; also recorded: lacking	dose-dependent release of CGRP	induced a concentration dependent release of CGRP; also recorded: induce release of CGRP	effective in increasing sensitivity to periorbital von Frey (VF) stimulation as early as Day 5	induce mechanical allodynia in the periorbital region of rats; also recorded: trigger mechanical allodynia in the periorbital region	CGRP release from isolated mouse hind paw skin (TRPM3 [2]): induced to release CGRP; Overt adverse effects / body weight (rats [6]; [10]): do not cause overt adverse effects
Cc1cc(NC(=O)[C@@H](C)N2CCCc3ccccc32)no1 (single isomer, unassigned) [R-isomer]								Relative agonist potency of the isomers of CIM0216 in calcium mobilisation assay (TRPM3 (SEQ ID NO: 2)): more potent agonist compared to the S-isomer; Relative agonist potency of the isomers of CIM0216 in calcium mobilisation assay (TRPM3 (SEQ ID NO: 2); listed as (R)-2-(3,4-dihydroquinolin-1(2H)-yl)-N-(5-methylisoxazol-3-yl)propenamide): more potent agonist than the (S)-isomer
COc1cc(CNC(=O)CCCC/C=C/C(C)C)ccc1O [capsaicin]			could be induced by capsaicin					PACAP release from Trpm3 knockout cells (TRPM3 [3]; Trpm3 knockout mouse DRG and TG cells): still responsive; CGRP release from Trpm3 deficient sensory neurons (TRPM3 [4]; listed as Capsaicin): evoked CGRP release
CNS(=O)(=O)Cc1ccc2[nH]cc(CCN(C)C)c2c1 [sumatriptan]								Mechanical nociception sensitivity (rats [7]): alleviated; PACAP-38 levels (PACAP-38): decreased PACAP-38 levels
pregnenolone sulfate	increased release of CGRP; also recorded: demonstrated to be concentration dependent; also recorded: stimulate release of CGRP	dependent on TRPM3	absent	dose-dependent release of CGRP	increased release of CGRP; also recorded: induce release of CGRP	effective in increasing sensitivity to periorbital von Frey (VF) stimulation as early as Day 5	induce mechanical allodynia in the periorbital region of rats; also recorded: trigger mechanical allodynia in the periorbital region	Increase in FLUO4 fluorescence, R1670Q variant [8, 11]: induced concentration-dependent increases in FLUO4 fluorescence; Potency at the R1670Q variant relative to canonical TRPM3 ([8]; greater at R1670Q, equal multiplicities of infection): 1.8 fold; Maximal fold change in fluorescence at R1670Q variant relative to canonical ([8]; larger at R1670Q, equal multiplicities of infection): 26%; Increase in FLUO4 fluorescence, canonical TRPM3 (TRPM3 (SEQ ID NO: 2); [11]): induced concentration-dependent increases in FLUO4 fluorescence; CGRP release from Trpm3 deficient sensory neurons (TRPM3 [4]; listed as PS): lacking; Inward current in trigeminal neurons (TRPM3 [9]): induced an inward current
